We go through nine molecules from patent US6897211B2, “Thienodibenzoazulene compounds as tumor necrosis factor inhibitors” (Pliva-Istrazivacki Institut d.o.o., priority 2000, dated 2005).

The structures appear in SMILES notation.

The first data set deals with secretion of TNF-α and IL-1. Nature of the data set: investigated tests: TNF-α and IL-1 secretion in human PBMC and mouse peritoneal macrophages in vitro, LPS-induced TNF-α/IL-1 secretion in mice, writhing test, LPS-induced shock in mice. The settings on record: tests not specified per compound; active = IC-50 20 μM or lower (human PBMC), 10 μM or lower (mouse macrophages), 30% or higher TNF-α inhibition at 10 mg/kg p.o., analgetic activity same or better than acetyl salicylic acid, 40% or better survival at 30 mg/kg. (Writhing tests count abdominal constrictions after an irritant is injected.)
In the case of `Cl.Fc1ccc2c(c1)-c1sc(COCCN3CCCCC3)cc1-c1ccccc1O2` [Example 19, 1-[2-(11-fluoro-8-oxa-1-thia-dibenzo[e,h]azulene-2-ylmethoxy)-ethyl]-piperidine hydrochloride], the “activity in at least two investigated tests” value (from here on “activity”) is “activity in at least two investigated tests”.

For `CN(C)CCCOCc1cc2c(s1)-c1ccccc1Oc1ccccc1-2.Cl` [Example 1, Dimethyl-[3-(8-oxa-1-thia-dibenzo[e,h]azulene-2-ylmethoxy)-propyl]-amine hydrochloride], the “activity” value is recorded as “activity in at least two investigated tests”.

As to `CN(C)CCCOCc1cc2c(s1)-c1ccccc1Sc1ccccc1-2.Cl` [Example 21, [3-(1,8-dithia-dibenzo[e,h]azulene-2-ylmethoxy)-propyl]-dimethylamine hydrochloride], the “activity” value was “activity in at least two investigated tests”.

For `Cl.c1ccc2c(c1)Oc1ccccc1-c1sc(COCCN3CCCC3)cc1-2` [Example 5, 1-[2-(8-oxa-1-thia-dibenzo[e,h]azulene-2-ylmethoxy)-ethyl]-pyrrolidine hydrochloride], the “activity” value is given as “activity in at least two investigated tests”.

Test system in another data set: not given
Experiment: not given
Settings: not given
By melting point is commonly meant the temperature of the solid-liquid transition. For the molecule `CN(C)CCOCc1cc2c(s1)-c1cccc(Cl)c1Oc1ccccc1-2` [Example 7, [2-(9-chloro-8-oxa-1-thia-dibenzo[e,h]azulene-2-ylmethoxy)-ethyl]-dimethyl-amine], the melting point stood at 122 °C.

Take `CN(C)CCCOCc1cc2c(s1)-c1cccc(Cl)c1Oc1ccccc1-2` [Example 6, [3-(9-chloro-8-oxa-1-thia-dibenzo[e,h]azulene-2-ylmethoxy)-propyl]-dimethyl-amine]: the melting point was in the range of 124 to 128 °C.

Molecule `CN(C)CCOCc1cc2c(s1)-c1ccccc1Oc1ccccc1-2.Cl` came in with a melting point of 131 to 133 °C.

`CN(C)CCCOCc1cc2c(s1)-c1ccccc1Oc1ccccc1-2.Cl` [Example 1, Dimethyl-[3-(8-oxa-1-thia-dibenzo[e,h]azulene-2-ylmethoxy)-propyl]-amine hydrochloride] returned a melting point of 120 to 122 °C.

The molecule `Cl.c1ccc2c(c1)Oc1ccccc1-c1sc(COCCN3CCOCC3)cc1-2` yielded a melting point of 157 to 158 °C.

Regarding `Cl.c1ccc2c(c1)Oc1ccccc1-c1sc(COCCN3CCCCC3)cc1-2`, the melting point is 117 to 123 °C.
